This note sets out measurements from ChEMBL document CHEMBL1201862, “PubChem BioAssay data set” (2004).

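Protocol summary: plate cells (96-well), add compound at 5 concentrations, incubate 48 h, interpolate endpoints linearly. GI50 = concentration required for 50% inhibition of growth.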 Activity calls are given as the source filed them. Cut-off read from the data, not from the text of the source: active = GI50 up to about 1.1 µM and inactive = higher. Where only a bound is given, the exact number is not on record here.

Common to all, as to assay: inhibition of tumour cell growth, NCI panel, 48 h
The subject of experiment [1] is COLO 205.
In experiment [2] the test system is SK-MEL-2.
For experiment [3], the system named is TK-10.
In experiment [4] the test system is SNB-75.
In experiment [5] the test system is 786-0.
For experiment [6], the system named is SF-268.
The test system of experiment [7] is K562.
For experiment [8], the system named is CAKI-1.
The subject of experiment [9] is HT-29.
In experiment [10] the test system is SN12C.
Experiment [11] deals with RXF 393.
Experiment [12] relates to SNB-19.
The subject of experiment [13] is M14.
Experiment [14] concerns MOLT-4.
For experiment [15], the system named is UO-31.
In experiment [16] the test system is NCI-H226.
For experiment [17], the system named is SK-OV-3.

For `C=C(C)CC(C(=O)O)c1ccc(C)cc1` (stereo not given), the GI50 in [1], in experiment [2], in experiment [3], in [4], in experiment [5] and in experiment [6] was > 100 µM (inactive) each time. Further, the GI50 in experiment [7], in experiment [8], in [9], in experiment [10], in experiment [11] and in experiment [12] was > 100 µM (inactive) each time.

On to `C=C[C@@]1(C)CCC2(O)C(CCC3C2(C)CCC[C@@]3(C)COC(=O)CC(=O)OC)C1` (stereo not given in full), for which the GI50 is 18.1 µM (inactive) in [13]; 18.7 µM (inactive) in experiment [3]; 19.9 µM (inactive) in experiment [4]; 35.6 µM (inactive) in [5]; 22.5 µM (inactive) in experiment [6]; 17.2 µM (inactive) in [14]. Further, the GI50 is 22.4 µM (inactive) in experiment [7]; > 100 µM (inactive) in [8]; 22.6 µM (inactive) in experiment [15]; 18.9 µM (inactive) in experiment [9]; 19.9 µM (inactive) in [10]; 23.7 µM (inactive) in experiment [11]. Besides, the GI50 in experiment [12] is 31.6 µM (inactive); in [16] it was 26.2 µM (inactive); in experiment [17] it was > 100 µM (inactive).

For `COC1CCCc2c(OC(C)=O)ccc(OC(C)=O)c21` (stereo not given), the GI50 in experiment [13], in experiment [2], in experiment [3], in experiment [4], in experiment [5] and in experiment [6] was > 100 µM (inactive) throughout. Further, the GI50 in experiment [14], in experiment [7], in experiment [8], in experiment [15], in experiment [10] and in experiment [11] was > 100 µM (inactive) in each case. In addition, the GI50 in experiment [12], in [16] and in experiment [17] was > 100 µM (inactive) throughout.

For the compound `CN(C)CCC(CCN(C)C)=NO`, the GI50 in experiment [13], in [1], in experiment [2], in [3], in experiment [4] and in experiment [5] was > 100 µM (inactive) in each case. Also, the GI50 in experiment [6], in experiment [14], in [7], in experiment [8], in experiment [15] and in experiment [9] was > 100 µM (inactive) in each case. Further, the GI50 in experiment [10], in experiment [11], in [12] and in experiment [17] was > 100 µM (inactive) throughout.

As for `NC(=O)/N=C1\NC(Cc2ccccc2)C(=O)N1Cc1ccccc1` (stereo not given), the GI50 in experiment [13] is > 100 µM (inactive); in [1] it was > 100 µM (inactive); in experiment [3] it was > 100 µM (inactive); in [4], 89.9 µM (inactive); in [5], > 100 µM (inactive); in [6] it was > 100 µM (inactive). In addition, the GI50 in [14], in experiment [7], in experiment [15], in experiment [9], in [10] and in experiment [11] was > 100 µM (inactive) each time. The GI50 in [12], in experiment [16] and in experiment [17] was > 100 µM (inactive) in each case.

On to `COc1ccc(/C(=C/n2ccnc2)C(O)c2ccc(OC)c(OC)c2)cc1OC` (stereo not given), for which the GI50 in experiment [13] is > 100 µM (inactive); in experiment [1], > 100 µM (inactive); in experiment [2], > 100 µM (inactive); in experiment [3], > 100 µM (inactive); in experiment [4], 51.9 µM (inactive); in experiment [5], > 100 µM (inactive). In addition, the GI50 in experiment [6] was > 100 µM (inactive); in [14], > 100 µM (inactive); in experiment [7], 37.2 µM (inactive); in [15], > 100 µM (inactive); in [9], > 100 µM (inactive); in [10], > 100 µM (inactive). For the same compound, the GI50 in [11] is 33.3 µM (inactive); in [12] it was > 100 µM (inactive); in [16], > 100 µM (inactive); in [17], > 100 µM (inactive).

With `OCCCCCNc1ccnc2cc(Cl)ccc12`, the GI50 was > 100 µM (inactive) in experiment [13]; 33.7 µM (inactive) in experiment [1]; > 100 µM (inactive) in [2]; > 100 µM (inactive) in [4]; > 100 µM (inactive) in experiment [5]; > 100 µM (inactive) in experiment [6]. In addition, the GI50 in experiment [14] was 24.6 µM (inactive); in [7], 21.9 µM (inactive); in experiment [8], > 100 µM (inactive); in experiment [15] it was 24.2 µM (inactive); in experiment [9] it was 29.2 µM (inactive); in [10] it was > 100 µM (inactive). Besides, the GI50 was > 100 µM (inactive) in experiment [11], > 100 µM (inactive) in experiment [12], 74.5 µM (inactive) in experiment [16] and > 100 µM (inactive) in experiment [17].

Consider `O=S(O)CCCCSSCc1ccccc1CSSCCCCS(=O)O`, for which the GI50 in [13] is 10.3 µM (inactive); in experiment [1], 15.5 µM (inactive); in experiment [2], 35.2 µM (inactive); in experiment [3] it was 43.4 µM (inactive); in experiment [4], 9.16 µM (inactive); in experiment [5] it was > 100 µM (inactive). Moreover, the GI50 in experiment [6] is 12.5 µM (inactive); in experiment [14], 0.904 µM (active); in experiment [7], 16.6 µM (inactive); in experiment [8], 25.8 µM (inactive); in [15], 11.1 µM (inactive); in experiment [9], 8.34 µM (inactive). Moreover, the GI50 in experiment [10] was 26 µM (inactive); in [11], 7.94 µM (inactive); in experiment [12], 56.2 µM (inactive); in experiment [17], > 100 µM (inactive).

With `Nc1ccc2c(c1)CC1c3ccccc3C(C2)c2ccccc21`, the GI50 in [13], in [1], in experiment [2], in experiment [3], in [4] and in experiment [5] was > 100 µM (inactive) in each case. Besides, the GI50 in experiment [6], in experiment [14], in experiment [7], in [8], in [15] and in experiment [9] was > 100 µM (inactive) in each case. Further, the GI50 in [10], in experiment [11], in experiment [12] and in [17] was > 100 µM (inactive) in each case.

On to `CCCCCCCCCCCCCCCCc1c(C(=O)OC)[nH]c(=S)[nH]c1=O`, for which the GI50 in experiment [13], in [1], in [2], in experiment [3], in experiment [4] and in [5] was > 50 µM (inactive) throughout. The GI50 in experiment [6], in [14], in experiment [7], in experiment [8], in [15] and in experiment [9] was > 50 µM (inactive) throughout. Also, the GI50 in [10], in experiment [11], in experiment [12] and in [17] was > 50 µM (inactive) throughout.

As to `O=Cc1cc2sc(C=O)cc2s1`, the GI50 in experiment [13], in experiment [1], in experiment [3], in experiment [4], in experiment [5] and in experiment [6] was > 100 µM (inactive) throughout. The GI50 in experiment [14] is > 100 µM (inactive); in experiment [7], > 100 µM (inactive); in experiment [8] it was 45.3 µM (inactive); in experiment [15] it was > 100 µM (inactive); in [9] it was > 100 µM (inactive); in [10] it was > 100 µM (inactive). The GI50 is > 100 µM (inactive) in experiment [11], > 100 µM (inactive) in experiment [12], 26.1 µM (inactive) in experiment [16] and > 100 µM (inactive) in experiment [17].

In the case of `CN(C)CN(C)c1nc(N(C)C)nc(N(C)C)n1`, the GI50 in experiment [13], in experiment [1], in experiment [2], in [3], in experiment [4] and in [5] was > 100 µM (inactive) each time. The GI50 in experiment [6], in [14], in experiment [7], in experiment [8], in experiment [15] and in experiment [9] was > 100 µM (inactive) throughout. For the same compound, the GI50 in experiment [10] is > 100 µM (inactive); in experiment [11] it was 61.1 µM (inactive); in experiment [12] it was > 100 µM (inactive); in experiment [17], > 100 µM (inactive).

With `CCOc1cccc2cccnc12`, the GI50 in experiment [13], in experiment [1], in experiment [3], in [4], in experiment [5] and in experiment [6] was > 100 µM (inactive) each time. Besides, the GI50 in experiment [14], in [7], in experiment [15], in experiment [9], in [10] and in experiment [11] was > 100 µM (inactive) each time. The GI50 in [12], in experiment [16] and in experiment [17] was > 100 µM (inactive) in each case.
